Read-outs that look alike come from different tables or passages of the source.
Assays:
[1] = Pharmacokinetics in male CD-1 mice; assay type: in vivo; conditions: for AUCex: percent of AUC0-inf that is extrapolated; for AUC(0-t): male, CD-1, mouse; for AUC(0-t) / bioavailability / Cmax / Tmax / half-life / AUC(0-inf) / clearance / Vd / CL/F / Vd/F: plasma; for bioavailability / Cmax / Tmax / half-life / AUC(0-inf) / clearance / Vd / CL/F / Vd/F: mouse; for bioavailability: read-out: F (oral bioavailability); for AUC(0-inf) / clearance / Vd / CL/F / Vd/F: predicted; for Vd: read-out: Vz; for Vd/F: read-out: Vz/F
Method: Six groups of male CD-1 mice of approximately 25-35 g (about 8 weeks of age) were dosed with Comparative compound 324 and Compound A intravenously (IV) (in 10% DMSO:90% Hydroxypropyl-β-cyclodextrin (20% aq. w/v)) or orally (PO) (in 0.5% w/v methylcelluose (aq.) according to the regimen shown in Table 6.
Intravenous doses was administered into a tail vein at a constant dose volume of 5 mL/kg to achieve a dose level of 3 mg/kg. Oral doses were administered as a single bolus dose via syringe with attached polypropylene gavage tube at a constant dose volume of 10 mL/kg to achieve dose levels of 3 mg/kg (groups 2 and 4) and 30 mg/kg (group 3 and 6).
Following dosing, blood samples were collected into individual K3EDTA tubes by cardiac puncture under terminal anaesthesia (isoflurane) from 3 animals per timepoint. Following collection animal were sacrificed by cervical dislocation. Samples were taken at 5, 15 and 30 minutes and then 1, 2, 4, 8 and 24 hours post-IV dose and 15 and 30 minutes and then 1, 2, 4, 8 and 24 hours post-OP dose.
Upon collection, blood samples were centrifuged at 10,000×g, 2 minutes at 4° C. and the resultant plasma was drawn off and stored at −20° C. for analysis by LC-MS/MS of the concentration of the compounds. The remaining blood call pellet was discarded.
Pharmacokinetic parameters were derived by non-compartmental analysis (linear/logarithmic trapezoidal) using WinNonlin (Version 4.1 or higher) software.

[2] = biological target: ABL1 (H396P) phosphorylated (Homo sapiens, UniProt P00519, H396P); experiment: KINOMEscan binding assay; conditions: read-out: % Ctrl @ 10000 nM
[3] = biological target: ACVR1 (Homo sapiens, UniProt Q04771); experiment: KINOMEscan binding assay; conditions: read-out: % Ctrl @ 10000 nM
[4] = biological target: ASK2 (Homo sapiens, UniProt O95382); experiment: KINOMEscan binding assay; conditions: read-out: % Ctrl @ 10000 nM
[5] = biological target: CAMK4 (Homo sapiens, UniProt Q16566); experiment: KINOMEscan binding assay; conditions: read-out: % Ctrl @ 10000 nM
CAMK4, sequence (Q16566 whole entry): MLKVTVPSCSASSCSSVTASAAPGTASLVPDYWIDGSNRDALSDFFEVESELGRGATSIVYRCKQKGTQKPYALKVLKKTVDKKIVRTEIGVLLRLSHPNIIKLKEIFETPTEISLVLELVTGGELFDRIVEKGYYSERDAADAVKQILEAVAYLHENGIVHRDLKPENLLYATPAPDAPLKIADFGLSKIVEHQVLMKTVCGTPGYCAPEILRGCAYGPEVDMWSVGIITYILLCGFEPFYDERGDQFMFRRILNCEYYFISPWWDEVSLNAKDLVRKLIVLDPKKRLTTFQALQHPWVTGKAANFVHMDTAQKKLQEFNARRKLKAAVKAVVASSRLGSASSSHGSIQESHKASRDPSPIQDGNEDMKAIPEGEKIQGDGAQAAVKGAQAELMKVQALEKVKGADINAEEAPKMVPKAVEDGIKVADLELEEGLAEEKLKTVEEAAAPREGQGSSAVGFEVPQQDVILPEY

[6] = biological target: CDKL3 (Homo sapiens, UniProt Q8IVW4); experiment: KINOMEscan binding assay; conditions: read-out: % Ctrl @ 10000 nM
[7] = biological target: CSNK1G3 (Homo sapiens, UniProt Q9Y6M4); experiment: KINOMEscan binding assay; conditions: read-out: % Ctrl @ 10000 nM
[8] = biological target: CSNK2A1 (Homo sapiens, UniProt P68400); experiment: KINOMEscan binding assay; conditions: read-out: % Ctrl @ 10000 nM
CSNK2A1, sequence (P68400 whole entry): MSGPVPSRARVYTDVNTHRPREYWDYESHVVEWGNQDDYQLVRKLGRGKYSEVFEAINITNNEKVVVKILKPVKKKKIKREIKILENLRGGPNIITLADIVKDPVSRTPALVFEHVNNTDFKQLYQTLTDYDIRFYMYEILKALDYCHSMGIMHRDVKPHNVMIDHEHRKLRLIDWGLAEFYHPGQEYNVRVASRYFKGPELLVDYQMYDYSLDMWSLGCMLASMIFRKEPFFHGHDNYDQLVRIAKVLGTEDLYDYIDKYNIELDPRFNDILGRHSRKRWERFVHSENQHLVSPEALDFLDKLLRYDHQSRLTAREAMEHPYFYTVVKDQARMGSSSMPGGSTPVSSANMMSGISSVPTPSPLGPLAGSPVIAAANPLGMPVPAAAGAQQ

[9] = biological target: DAPK3 (Homo sapiens, UniProt O43293); experiment: KINOMEscan binding assay; conditions: read-out: % Ctrl @ 10000 nM
[10] = biological target: EPHA1 (Homo sapiens, UniProt P21709); experiment: KINOMEscan binding assay; conditions: read-out: % Ctrl @ 10000 nM
[11] = biological target: EPHB4 (Homo sapiens, UniProt P54760); experiment: KINOMEscan binding assay; conditions: read-out: % Ctrl @ 10000 nM
EPHB4, sequence (P54760 16-987): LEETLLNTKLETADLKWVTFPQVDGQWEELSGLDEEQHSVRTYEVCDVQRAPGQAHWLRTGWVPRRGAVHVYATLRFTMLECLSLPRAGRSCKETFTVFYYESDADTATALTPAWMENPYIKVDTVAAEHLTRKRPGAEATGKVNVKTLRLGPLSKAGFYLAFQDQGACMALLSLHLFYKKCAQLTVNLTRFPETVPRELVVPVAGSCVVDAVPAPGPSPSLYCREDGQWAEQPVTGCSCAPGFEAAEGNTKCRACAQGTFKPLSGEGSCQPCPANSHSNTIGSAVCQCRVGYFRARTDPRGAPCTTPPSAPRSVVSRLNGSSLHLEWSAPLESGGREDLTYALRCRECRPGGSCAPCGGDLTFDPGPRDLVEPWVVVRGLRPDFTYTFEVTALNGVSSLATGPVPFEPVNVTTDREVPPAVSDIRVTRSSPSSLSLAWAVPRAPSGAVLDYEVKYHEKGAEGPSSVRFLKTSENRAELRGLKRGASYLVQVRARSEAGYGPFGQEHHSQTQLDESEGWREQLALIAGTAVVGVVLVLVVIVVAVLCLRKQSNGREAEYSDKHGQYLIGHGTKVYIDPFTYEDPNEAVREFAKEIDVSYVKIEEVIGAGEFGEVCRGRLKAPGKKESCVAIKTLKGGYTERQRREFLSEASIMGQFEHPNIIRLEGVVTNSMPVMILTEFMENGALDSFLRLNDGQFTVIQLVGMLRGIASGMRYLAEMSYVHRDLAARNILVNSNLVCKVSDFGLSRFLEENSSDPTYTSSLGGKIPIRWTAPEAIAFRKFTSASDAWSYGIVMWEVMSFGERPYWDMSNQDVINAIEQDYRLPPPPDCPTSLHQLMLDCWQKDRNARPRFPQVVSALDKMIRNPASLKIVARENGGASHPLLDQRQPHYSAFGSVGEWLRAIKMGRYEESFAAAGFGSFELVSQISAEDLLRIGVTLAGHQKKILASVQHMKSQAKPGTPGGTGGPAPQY

[12] = biological target: FRK (Homo sapiens, UniProt P42685); experiment: KINOMEscan binding assay; conditions: read-out: % Ctrl @ 10000 nM
FRK, sequence (P42685 whole entry): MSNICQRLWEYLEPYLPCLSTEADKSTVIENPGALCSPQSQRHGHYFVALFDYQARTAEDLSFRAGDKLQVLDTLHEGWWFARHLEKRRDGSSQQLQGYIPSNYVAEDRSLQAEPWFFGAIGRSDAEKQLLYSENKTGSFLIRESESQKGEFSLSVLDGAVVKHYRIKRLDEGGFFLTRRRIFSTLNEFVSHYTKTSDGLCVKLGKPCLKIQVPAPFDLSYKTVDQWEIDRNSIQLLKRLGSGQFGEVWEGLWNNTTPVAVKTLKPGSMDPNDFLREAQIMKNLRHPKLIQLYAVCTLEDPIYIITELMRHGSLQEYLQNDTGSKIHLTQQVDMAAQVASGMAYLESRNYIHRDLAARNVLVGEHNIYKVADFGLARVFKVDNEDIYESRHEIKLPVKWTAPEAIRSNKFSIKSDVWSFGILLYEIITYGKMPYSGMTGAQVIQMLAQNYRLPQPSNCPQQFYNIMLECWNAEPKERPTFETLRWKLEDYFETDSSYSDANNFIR

[13] = biological target: HPK1 (Homo sapiens, UniProt Q92918); experiment: KINOMEscan binding assay; conditions: read-out: % Ctrl @ 10000 nM
HPK1, sequence (Q92918 whole entry): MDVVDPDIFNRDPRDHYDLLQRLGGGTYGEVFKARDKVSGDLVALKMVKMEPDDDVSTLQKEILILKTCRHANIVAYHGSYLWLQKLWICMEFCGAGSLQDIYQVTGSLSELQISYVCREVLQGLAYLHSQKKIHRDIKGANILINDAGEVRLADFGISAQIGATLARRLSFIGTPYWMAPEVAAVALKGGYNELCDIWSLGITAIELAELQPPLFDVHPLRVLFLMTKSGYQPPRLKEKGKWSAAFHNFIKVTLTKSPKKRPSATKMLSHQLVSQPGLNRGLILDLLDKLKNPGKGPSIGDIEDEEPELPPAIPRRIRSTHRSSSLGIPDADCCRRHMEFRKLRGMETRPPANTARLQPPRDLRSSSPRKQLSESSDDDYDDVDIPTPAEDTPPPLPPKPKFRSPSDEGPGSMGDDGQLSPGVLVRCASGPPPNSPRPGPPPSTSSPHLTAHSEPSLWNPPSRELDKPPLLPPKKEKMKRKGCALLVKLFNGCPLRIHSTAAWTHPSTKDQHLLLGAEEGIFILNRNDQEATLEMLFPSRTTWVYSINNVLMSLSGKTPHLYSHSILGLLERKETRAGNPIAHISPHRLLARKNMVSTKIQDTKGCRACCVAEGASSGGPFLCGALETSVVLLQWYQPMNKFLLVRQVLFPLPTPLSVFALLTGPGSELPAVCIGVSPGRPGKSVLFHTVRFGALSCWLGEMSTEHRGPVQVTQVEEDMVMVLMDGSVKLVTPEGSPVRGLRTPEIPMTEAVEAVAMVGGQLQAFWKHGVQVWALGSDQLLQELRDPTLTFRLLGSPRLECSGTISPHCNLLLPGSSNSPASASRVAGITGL

[14] = biological target: IGF1R (Homo sapiens, UniProt P08069); experiment: KINOMEscan binding assay; conditions: read-out: % Ctrl @ 10000 nM
[15] = biological target: IKK-alpha (Homo sapiens, UniProt O15111); experiment: KINOMEscan binding assay; conditions: read-out: % Ctrl @ 10000 nM
[16] = biological target: INSRR (Homo sapiens, UniProt P14616); experiment: KINOMEscan binding assay; conditions: read-out: % Ctrl @ 10000 nM
[17] = biological target: IRAK1 (Homo sapiens, UniProt P51617); experiment: KINOMEscan binding assay; conditions: read-out: % Ctrl @ 10000 nM
[18] = biological target: LATS2 (Homo sapiens, UniProt Q9NRM7); experiment: KINOMEscan binding assay; conditions: read-out: % Ctrl @ 10000 nM
[19] = biological target: LCK (Homo sapiens, UniProt P06239); experiment: KINOMEscan binding assay; conditions: read-out: % Ctrl @ 10000 nM
LCK, sequence (P06239 whole entry): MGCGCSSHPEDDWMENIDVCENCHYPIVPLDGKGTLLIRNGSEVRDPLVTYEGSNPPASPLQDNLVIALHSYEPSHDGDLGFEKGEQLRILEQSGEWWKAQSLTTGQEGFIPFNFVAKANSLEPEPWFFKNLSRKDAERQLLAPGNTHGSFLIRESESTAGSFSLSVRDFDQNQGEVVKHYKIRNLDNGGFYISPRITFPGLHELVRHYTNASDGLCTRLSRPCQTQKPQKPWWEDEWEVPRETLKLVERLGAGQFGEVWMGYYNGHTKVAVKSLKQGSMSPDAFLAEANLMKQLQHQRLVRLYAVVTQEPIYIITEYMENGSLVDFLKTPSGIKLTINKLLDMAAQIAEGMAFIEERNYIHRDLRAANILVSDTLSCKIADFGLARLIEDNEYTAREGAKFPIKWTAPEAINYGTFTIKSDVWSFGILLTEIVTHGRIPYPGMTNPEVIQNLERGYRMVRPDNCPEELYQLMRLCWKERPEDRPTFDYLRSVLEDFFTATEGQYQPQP

[20] = biological target: T1, MAP3K1 (Homo sapiens, UniProt Q13233); experiment: KINOMEscan binding assay; conditions: read-out: % Ctrl @ 10000 nM
T1 construct: T7 phage fusion (most assays) or DNA label after HEK293 expression; purchased DiscoveRx (KINOMEscan, LeadHunter Discovery services); host or cells: T7 phage in E. coli (BL21-derived) or HEK293

[21] = biological target: T2, MAP4K4 (Homo sapiens, UniProt O95819); experiment: KINOMEscan binding assay; conditions: read-out: % Ctrl @ 10000 nM
T2 construct: T7 phage fusion (most assays) or DNA label after HEK293 expression; purchased DiscoveRx (KINOMEscan, LeadHunter Discovery services); host or cells: T7 phage in E. coli (BL21-derived) or HEK293

[22] = biological target: NEK4 (Homo sapiens, UniProt P51957); experiment: KINOMEscan binding assay; conditions: read-out: % Ctrl @ 10000 nM
[23] = biological target: NEK7 (Homo sapiens, UniProt Q8TDX7); experiment: KINOMEscan binding assay; conditions: read-out: % Ctrl @ 10000 nM
NEK7, sequence (Q8TDX7 whole entry): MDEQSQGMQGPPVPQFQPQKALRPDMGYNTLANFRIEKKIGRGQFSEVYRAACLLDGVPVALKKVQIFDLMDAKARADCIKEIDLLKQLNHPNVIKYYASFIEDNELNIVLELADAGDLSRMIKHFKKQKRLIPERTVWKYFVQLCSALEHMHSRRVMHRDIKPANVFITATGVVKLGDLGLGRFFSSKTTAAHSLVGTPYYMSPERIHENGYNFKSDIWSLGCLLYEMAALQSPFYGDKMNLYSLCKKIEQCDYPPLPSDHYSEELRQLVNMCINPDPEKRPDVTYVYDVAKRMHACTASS

[24] = biological target: NEK9 (Homo sapiens, UniProt Q8TD19); experiment: KINOMEscan binding assay; conditions: read-out: % Ctrl @ 10000 nM
[25] = biological target: PAK2 (Homo sapiens, UniProt Q13177); experiment: KINOMEscan binding assay; conditions: read-out: % Ctrl @ 10000 nM
[26] = biological target: RSK4 Kin.Dom.1-N-terminal (Homo sapiens, UniProt Q9UK32); experiment: KINOMEscan binding assay; conditions: read-out: % Ctrl @ 10000 nM
[27] = biological target: SGK (Homo sapiens, UniProt O00141); experiment: KINOMEscan binding assay; conditions: read-out: % Ctrl @ 10000 nM
SGK, sequence (O00141 whole entry): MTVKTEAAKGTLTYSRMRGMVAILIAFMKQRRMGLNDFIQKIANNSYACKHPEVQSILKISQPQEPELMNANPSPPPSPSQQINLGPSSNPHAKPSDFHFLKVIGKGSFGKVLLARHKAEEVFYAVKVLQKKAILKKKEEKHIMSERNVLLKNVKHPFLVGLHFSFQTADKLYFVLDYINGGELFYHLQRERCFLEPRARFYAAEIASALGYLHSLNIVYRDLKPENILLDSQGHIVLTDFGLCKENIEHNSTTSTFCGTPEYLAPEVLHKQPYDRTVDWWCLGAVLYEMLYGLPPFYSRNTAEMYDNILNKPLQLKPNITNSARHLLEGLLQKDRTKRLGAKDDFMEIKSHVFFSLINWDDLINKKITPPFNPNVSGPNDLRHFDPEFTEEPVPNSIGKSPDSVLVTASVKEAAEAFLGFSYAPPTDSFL

[28] = biological target: T3, ULK3 (Homo sapiens, UniProt Q6PHR2); experiment: KINOMEscan binding assay; conditions: read-out: % Ctrl @ 10000 nM
T3 construct: purchased DiscoveRx (KINOMEscan, LeadHunter Discovery services)
T3 sequence (Q6PHR2 whole entry): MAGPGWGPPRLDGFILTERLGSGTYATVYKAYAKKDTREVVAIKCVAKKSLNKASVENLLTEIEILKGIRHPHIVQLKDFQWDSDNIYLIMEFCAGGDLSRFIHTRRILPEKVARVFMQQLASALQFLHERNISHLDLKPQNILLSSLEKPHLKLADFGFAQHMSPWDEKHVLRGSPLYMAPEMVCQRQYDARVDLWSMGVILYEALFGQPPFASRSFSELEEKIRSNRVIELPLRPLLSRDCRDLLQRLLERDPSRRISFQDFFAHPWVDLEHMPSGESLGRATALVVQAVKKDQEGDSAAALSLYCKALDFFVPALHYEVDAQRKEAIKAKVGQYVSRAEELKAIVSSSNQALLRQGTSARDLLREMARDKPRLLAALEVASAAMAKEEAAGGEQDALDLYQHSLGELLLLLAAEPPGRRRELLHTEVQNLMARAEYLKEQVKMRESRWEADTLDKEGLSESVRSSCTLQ

[29] = iv, 3 mg/kg, IV 3 mg/kg, male CD-1 mice, read-out: AUC0-24 h
[30] = iv, 3 mg/kg, IV 3 mg/kg, male CD-1 mice, read-out: AUC0-t
[31] = po, 3 mg/kg, PO 3 mg/kg, male CD-1 mice, read-out: AUC0-24 h
[32] = po, 3 mg/kg, PO 3 mg/kg, male CD-1 mice, read-out: AUC0-t
[33] = po, 30 mg/kg, PO 30 mg/kg, male CD-1 mice, read-out: AUC0-24 h
[34] = po, 30 mg/kg, PO 30 mg/kg, male CD-1 mice, read-out: AUC0-t

## Nc1ncc(-c2nc3ccccc3o2)c(-c2ccncc2)n1 [Comparative Compound 324, 5-(1,3-benzoxazol-2-yl)-4-(pyridine-4-yl)pyrimidin-2-amine]
[1]; IV 3 mg/kg
  AUCex: 1.9%
[1]; [29]
  AUC(0-t): 315 ng·h/mL
[1]; [30]
  AUC(0-t): 304 ng·h/mL
[1]; [31]
  AUC(0-t): 11.1 ng·h/mL
[1]; [32]
  AUC(0-t): 8.66 ng·h/mL
[1]; [33]
  AUC(0-t): 1590 ng·h/mL
[1]; [34]
  AUC(0-t): 1210 ng·h/mL
[1]; PO 3 mg/kg, male CD-1 mice
  bioavailability: 3%
  Cmax: 14 ng/mL
  Tmax: 15 min
[1]; PO 30 mg/kg, male CD-1 mice
  bioavailability: 40%
  Cmax: 666 ng/mL
  Tmax: 30 min
[1]; IV 3 mg/kg, male CD-1 mice
  Cmax: 1150 ng/mL
  Tmax: 4.98 min
  half-life: 5.46 min
  AUC(0-inf): 309 ng·h/mL
  clearance: 162 mL/min/kg
  Vd: 1.27 L/kg
[2]
  remaining binding at 10 µM: 98%
[3]
  remaining binding at 10 µM: 100%
[4]
  remaining binding at 10 µM: 99%
[5]
  remaining binding at 10 µM: 89%
[6]
  remaining binding at 10 µM: 100%
[7]
  remaining binding at 10 µM: 83%
[8]
  remaining binding at 10 µM: 56%
[9]
  remaining binding at 10 µM: 100%
[10]
  remaining binding at 10 µM: 83%
[11]
  remaining binding at 10 µM: 100%
[12]
  remaining binding at 10 µM: 100%
[13]
  remaining binding at 10 µM: 86%
[14]
  remaining binding at 10 µM: 100%
[15]
  remaining binding at 10 µM: 92%
[16]
  remaining binding at 10 µM: 100%
[17]
  remaining binding at 10 µM: 87%
[18]
  remaining binding at 10 µM: 82%
[19]
  remaining binding at 10 µM: 88%
[20]
  remaining binding at 10 µM: 85%
[21]
  remaining binding at 10 µM: 97%
[22]
  remaining binding at 10 µM: 89%
[23]
  remaining binding at 10 µM: 100%
[24]
  remaining binding at 10 µM: 100%
[25]
  remaining binding at 10 µM: 92%
[26]
  remaining binding at 10 µM: 85%
[27]
  remaining binding at 10 µM: 100%
[28]
  remaining binding at 10 µM: 100%

## CNc1c(C(N)=O)c2ccccn2c1C(=O)c1ccc(F)cc1 [Compound A, 2-methyl-amino-3-[(4-fluorophenyl)carbonyl]indolizine-1-carboxamide]
[1]; IV 3 mg/kg
  AUCex: 0.1%
[1]; PO 3 mg/kg
  AUCex: 6.3%
[1]; PO 30 mg/kg
  AUCex: 18.5%
[1]; male CD-1 mice, 24 hours after administration
  clearance after administration: completely cleared after 24 hours
[1]; [29]
  AUC(0-t): 502 ng·h/mL
[1]; [30]
  AUC(0-t): 498 ng·h/mL
[1]; [31]
  AUC(0-t): 35.4 ng·h/mL
[1]; [32]
  AUC(0-t): 32.4 ng·h/mL
[1]; [33]
  AUC(0-t): 659 ng·h/mL
[1]; [34]
  AUC(0-t): 470 ng·h/mL
[1]; PO 3 mg/kg, male CD-1 mice
  bioavailability: 7%
  Cmax: 47 ng/mL
  Tmax: 15 min
  half-life: 29.4 min
  AUC(0-inf): 34.6 ng·h/mL
  CL/F: 1450 mL/min/kg
  Vd/F: 61.4 L/kg
[1]; PO 30 mg/kg, male CD-1 mice
  bioavailability: 9%
  Cmax: 237 ng/mL
  Tmax: 30 min
  half-life: 210 min
  AUC(0-inf): 576 ng·h/mL
  CL/F: 868 mL/min/kg
  Vd/F: 264 L/kg
[1]; IV 3 mg/kg, male CD-1 mice
  Cmax: 1680 ng/mL
  Tmax: 4.98 min
  half-life: 13.8 min
  AUC(0-inf): 499 ng·h/mL
  clearance: 100 mL/min/kg
  Vd: 2 L/kg
[2]
  remaining binding at 10 µM: 49%
[3]
  remaining binding at 10 µM: 95%
[4]
  remaining binding at 10 µM: 100%
[5]
  remaining binding at 10 µM: 96%
[6]
  remaining binding at 10 µM: 93%
[7]
  remaining binding at 10 µM: 85%
[8]
  remaining binding at 10 µM: 53%
[9]
  remaining binding at 10 µM: 86%
[10]
  remaining binding at 10 µM: 72%
[11]
  remaining binding at 10 µM: 54%
[12]
  remaining binding at 10 µM: 58%
[13]
  remaining binding at 10 µM: 82%
[14]
  remaining binding at 10 µM: 99%
[15]
  remaining binding at 10 µM: 96%
[16]
  remaining binding at 10 µM: 100%
[17]
  remaining binding at 10 µM: 93%
[18]
  remaining binding at 10 µM: 72%
[19]
  remaining binding at 10 µM: 23%
[20]
  remaining binding at 10 µM: 76%
[21]
  remaining binding at 10 µM: 86%
[22]
  remaining binding at 10 µM: 96%
[23]
  remaining binding at 10 µM: 100%
[24]
  remaining binding at 10 µM: 100%
[25]
  remaining binding at 10 µM: 79%
[26]
  remaining binding at 10 µM: 64%
[27]
  remaining binding at 10 µM: 100%
[28]
  remaining binding at 10 µM: 100%
